Laboratory results published in publication PMC6270409, “Synthesis and Anti-Influenza Virus Activities of a Novel Class of Gastrodin Derivatives” (Molecules, 2013).
Where two headings read alike, the source gives them in different places. Marks after values point to notes of the source that are not given here.

Legend:
[1] = system: influenza A/FM/1/47(H1N1); test: microbe, parasite or virus in culture; type: cell-based, influenza A virus
[2] = system: influenza A/Hanfang/359/95(H3N2); test: microbe, parasite or virus in culture; type: cell-based, influenza A virus
MDCK cells = test: Cytotoxicity assay in MDCK cells monitored by CPE; details: 48 h, Table 1
viral hemagglutinin = test: Hemagglutination inhibition assay; type: biochemical, influenza virus; details: 2 fold serial diluted from 40 μg/mL, chicken erythrocytes
[3] = system: neuraminidase of the two influenza virus A strain; test: Neuraminidase inhibition assay (MUNANA), two influenza A strains; type: biochemical; details: MUNANA substrate
[4] = system: influenza A/FM/1/47-MA (H1N1) virus; type: in vivo, mice; details: for numbers of surviving animals: survivors/total; for Mean lung score / Lung consolidation: day 6 post-virus exposure; for Lung consolidation: score 0-4; for Mean day to death: b.i.d x 7, mean survival time of mice dying on or before day 14
[5] = system: influenza virus M2 protein expression; type: cell-based, influenza virus A/Wuhan/359/95
[6] = system: influenza B (B/Jifang/13/97); test: Anti-influenza CPE assay in MDCK cells, oseltamivir-null B/Jifang/13/97; type: cell-based; details: Influenza B virus, read-out: IC50 B/Jifang/13/97

Row | Molecule | IC50 ([1]; Influenza A virus, H1N1, MDCK) [µM] | IC50 ([2]; Influenza A virus, H3N2, MDCK) [µM] | melting point [°C] | IC50 [6] [µM] | further results
1 | OCc1ccc(O[C@@H]2O[C@H](CO)[C@@H](O)[C@H](O)[C@H]2O)cc1 [Gastrodin] | > 232 | 161 |  |  | TC50 (MDCK cells): >698.62 µM
2 | CC(=O)OC[C@H]1O[C@@H](Oc2cccc(F)c2C)[C@H](OC(C)=O)[C@@H](OC(C)=O)[C@@H]1OC(C)=O [Compound 10a, (2R,3R,4S,5R,6S)-2-(Acetoxymethyl)-6-(3-fluoro-2-methylphenoxy)-tetrahydro-2H-pyran-3,4,5-triyl triacetate] | > 146 | > 146 | 127 to 129 |  | 
3 | COC(=O)c1ccc(N)c(O[C@@H]2O[C@H](COC(C)=O)[C@@H](OC(C)=O)[C@H](OC(C)=O)[C@H]2OC(C)=O)c1 [Compound 4a, Methyl 4-amino-3-((2S,3R,4S,5R,6R)-3,4,5-triacetoxy-6-(acetoxymethyl)-tetrahydro-2H-pyran-2-yloxy)benzoate] | 119 | > 134 | 126 to 128 |  | 
4 | Ethyl 4-fluoro-2-((2S,3R,4S,5R,6R)-3,4,5-triacetoxy-6-(acetoxymethyl)-tetrahydro-2H-pyran-2-yloxy)-benzoate [Compound 8a] |  |  |  |  | IC50 [1]: 83.7 µM; IC50 [2]: 44.4 µM; TC50 (MDCK cells): 277.10 µM
5 | COC(=O)c1ccc(F)c(O[C@@H]2O[C@H](COC(C)=O)[C@@H](OC(C)=O)[C@H](OC(C)=O)[C@H]2OC(C)=O)c1 [Compound 1a, Methyl 4-fluoro-3-((2S,3R,4S,5R,6R)-3,4,5-triacetoxy-6-(acetoxymethyl)-tetrahydro-2H-pyran-2-yloxy)benzoate] | 34.4 | 44.4 |  | 33 | inhibitory effect on hemagglutination (viral hemagglutinin): did not show an inhibitory effect; IC50 [1]: 34.5 µM; IC50 on neuraminidase [3]: > 40 µg/mL; numbers of surviving animals ([4]; 40 mg/kg/day intragastrically): 1/10; Mean lung score ([4]; 40 mg/kg/day po): 2.61 ± 0.85; Lung consolidation ([4]; 40 mg/kg/day po): 3.56; numbers of surviving animals ([4]; 80 mg/kg/day intragastrically): 6/10; Mean day to death ([4]; 80 mg/kg/day po): 11.3 days; Mean lung score ([4]; 80 mg/kg/day po): 1.82 ± 0.82; Lung consolidation ([4]; 80 mg/kg/day po): 2.25; effect on influenza virus M2 protein expression ([5]; MDCK cells infected with A/Wuhan/359/95, 300TCID50, 24 hours post infection): no effect
6 | COC(=O)c1c(F)cccc1O[C@@H]1O[C@H](COC(C)=O)[C@@H](OC(C)=O)[C@H](OC(C)=O)[C@H]1OC(C)=O [Compound 9a, Methyl 2-fluoro-6-((2S,3R,4S,5R,6R)-3,4,5-triacetoxy-6-(acetoxymethyl)-tetrahydro-2H-pyran-2-yloxy)benzoate] | 34.5 | > 44.4 | 130 to 132 | > 44.4 | 
7 | NC(=O)c1ncn([C@@H]2O[C@H](CO)[C@@H](O)[C@H]2O)n1 [Ribavirin, reference compound] | 13.5 | 11.9 |  | 11.4 | influenza virus induced cytopathic effect ([2]; 10 μg/mL, strain not given): completely inhibits; Mean day to death ([4]; 100 mg/kg/day po): 14.0 * days; Mean lung score ([4]; 100 mg/kg/day po): 1.31 ± 0.34; Lung consolidation ([4]; 100 mg/kg/day po): 0.50 *; % Survivors ([4]; mouse, in vivo): 100 (10/10) %; effect on influenza virus M2 protein expression [5]: significant inhibitory effect
8 | CC(=O)OC[C@H]1O[C@@H](Oc2cccc(F)c2C)[C@H](OC(C)=O)[C@@H](OC(C)=O)[C@H]1OC(C)=O [Compound 10b, (2R,3S,4S,5R,6S)-2-(Acetoxymethyl)-6-(3-fluoro-2-methylphenoxy)-tetrahydro-2H-pyran-3,4,5-triyl triacetate] | > 52.2 | 48.7 | 127 to 129 | 39.4 | 
9 | COC(=O)c1c(OC)cc(O[C@@H]2O[C@H](COC(C)=O)[C@@H](OC(C)=O)[C@H](OC(C)=O)[C@H]2OC(C)=O)cc1OC [Compound 2a, Methyl 2,6-dimethoxy-4-((2S,3R,4S,5R,6R)-3,4,5-triacetoxy-6-(acetoxymethyl)-tetrahydro-2H-pyran-2-yloxy)benzoate] | 11.6 | > 13.7 | 121 to 123 | 6.25 | 
10 | COC(=O)c1cccc(O[C@@H]2O[C@H](COC(C)=O)[C@H](OC(C)=O)[C@H](OC(C)=O)[C@H]2OC(C)=O)c1 [Compound 6b, Methyl 3-((2S,3R,4S,5S,6R)-3,4,5-triacetoxy-6-(acetoxymethyl)-tetrahydro-2H-pyran-2-yloxy)benzoate] | > 138 | > 138 | 154 to 156 |  | 
11 | COC(=O)c1ccc(O[C@@H]2O[C@H](COC(C)=O)[C@H](OC(C)=O)[C@H](OC(C)=O)[C@H]2OC(C)=O)c(F)c1 [Compound 7b, Methyl 3-fluoro-4-((2S,3R,4S,5S,6R)-3,4,5-triacetoxy-6-(acetoxymethyl)-tetrahydro-2H-pyran-2-yloxy)benzoate] | 133 | > 133 | 121 to 123 |  | 
12 | CC(=O)OC[C@H]1O[C@@H](Oc2ncccc2F)[C@H](OC(C)=O)[C@@H](OC(C)=O)[C@@H]1OC(C)=O [Compound 12a, (2R,3R,4S,5R,6S)-2-(Acetoxymethyl)-6-(3-fluoropyridin-2-yloxy)-tetrahydro-2H-pyran-3,4,5-triyl triacetate] | 25.2 | > 50.1 | 140 to 142 | > 50.1 | 
13 | COC(=O)c1ccc(F)c(O)c1 [Compound 1, Methyl 4-fluoro-3-hydroxybenzoate] | > 392 | > 1180 |  |  | IC50 A/FM/1/47 [1]: no activity; IC50 A/Hanfang/359/95 [2]: no activity; TC50 (MDCK cells): >1175.50 µM
14 | OCc1ccc(F)c(O[C@@H]2O[C@H](CO)[C@@H](O)[C@H](O)[C@H]2O)c1 [Compound 14a, (2S,3R,4S,5S,6R)-2-(2-Fluoro-5-(hydroxymethyl)phenoxy)-6-(hydroxymethyl)-tetrahydro-2H-pyran-3,4,5-triol] | > 657 | > 657 |  |  | TC50 (MDCK cells): >657.31 µM
15 | COC(=O)c1c(F)cccc1O[C@@H]1O[C@H](COC(C)=O)[C@H](OC(C)=O)[C@H](OC(C)=O)[C@H]1OC(C)=O [Compound 9b, Methyl 2-fluoro-6-((2S,3R,4S,5S,6R)-3,4,5-triacetoxy-6-(acetoxymethyl)-tetrahydro-2H-pyran-2-yloxy)benzoate] | 66.6 | > 133 | 130 to 132 | > 133 | 
16 | CC(=O)OCc1ccc(F)c(O[C@@H]2O[C@H](COC(C)=O)[C@@H](OC(C)=O)[C@H](OC(C)=O)[C@H]2OC(C)=O)c1 [Compound 13a, (2R,3R,4S,5R,6S)-2-(Acetoxymethyl)-6-(5-(acetoxymethyl)-2-fluorophenoxy)-tetrahydro-2H-pyran-3,4,5-triyl triacetate] | > 130 | > 130 |  |  | 
17 | Methyl 4-((2S,3R,4S,5R,6R)-3,4,5-triacetoxy-6-(acetoxymethyl)-tetrahydro-2H-pyran-2-yloxy)benzoate [Compound 5a] |  |  |  |  | IC50 [1]: > 134 µM; IC50 [2]: 93.6 µM; TC50 (MDCK cells): 232.53 µM
18 | Ethyl 3,5-dichloro-4-((2S,3R,4S,5R,6R)-3,4,5-triacetoxy-6-(acetoxymethyl)-tetrahydro-2H-pyran-2-yloxy)benzoate [Compound 3a] |  |  |  |  | IC50 [1]: > 363 µM; IC50 [2]: > 363 µM; TC50 (MDCK cells): >362.77 µM
19 | CCOC(=O)C1=C[C@@H](OC(CC)CC)[C@H](NC(C)=O)[C@@H](N)C1 [Oseltamivir, reference compound] | 57.5 | 2.08 |  | > 100 | effect on influenza virus M2 protein expression [5]: has inhibitory effect
20 | COC(=O)c1ccc(O[C@@H]2O[C@H](COC(C)=O)[C@@H](OC(C)=O)[C@H](OC(C)=O)[C@H]2OC(C)=O)c(F)c1 [Compound 7a, Methyl 3-fluoro-4-((2S,3R,4S,5R,6R)-3,4,5-triacetoxy-6-(acetoxymethyl)-tetrahydro-2H-pyran-2-yloxy)benzoate] | > 133 | 103 | 121 to 123 |  | 
21 | COC(=O)c1ccc(F)c(O[C@@H]2O[C@H](COC(C)=O)[C@H](OC(C)=O)[C@H](OC(C)=O)[C@H]2OC(C)=O)c1 [Compound 1b, Methyl 4-fluoro-3-((2S,3R,4S,5S,6R)-3,4,5-triacetoxy-6-(acetoxymethyl)-tetrahydro-2H-pyran-2-yloxy)benzoate] | > 133 | 92.4 |  |  | 
22 | COC(=O)c1ccc(F)cc1O[C@@H]1O[C@H](COC(C)=O)[C@H](OC(C)=O)[C@H](OC(C)=O)[C@H]1OC(C)=O [Compound 8b, Methyl 4-fluoro-2-((2S,3R,4S,5S,6R)-3,4,5-triacetoxy-6-(acetoxymethyl)-tetrahydro-2H-pyran-2-yloxy)benzoate] | > 400 | > 400 | 136 to 138 |  | TC50 (MDCK cells): >399.66 µM
23 | CC(=O)OC[C@H]1O[C@@H](Oc2ccncc2)[C@H](OC(C)=O)[C@@H](OC(C)=O)[C@@H]1OC(C)=O [Compound 11a, (2R,3R,4S,5R,6S)-2-(Acetoxymethyl)-6-(pyridin-4-yloxy)-tetrahydro-2H-pyran-3,4,5-triyl triacetate] | 52.2 | 40.5 | 132 to 134 | > 52.2 | 
24 | NC12CC3CC(CC(C3)C1)C2 [Amantadine] |  |  |  |  | effect on influenza virus M2 protein expression [5]: significantly inhibited
